From ChEMBL document CHEMBL1151033, “Tricyclic cephems as inhibitors of human leukocyte elastase. Furo[3,4-c]cepham sulfones” (Bioorg Med Chem Lett, 1995)

Columns and labels:
[1] = Hydrolytic stability at 37 degrees Celsius in 50 mM phosphate buffer (2 % v/v MeCN as solubilising vehicle) at pH 7.4; format: physicochemical
[2] = target: T1, Neutrophil elastase (Homo sapiens) (UniProt P08246); assay: Inhibitory activity against human leukocyte elastase (HLE) expressed as second order inhibition rate constant
T1 sequence (whole entry): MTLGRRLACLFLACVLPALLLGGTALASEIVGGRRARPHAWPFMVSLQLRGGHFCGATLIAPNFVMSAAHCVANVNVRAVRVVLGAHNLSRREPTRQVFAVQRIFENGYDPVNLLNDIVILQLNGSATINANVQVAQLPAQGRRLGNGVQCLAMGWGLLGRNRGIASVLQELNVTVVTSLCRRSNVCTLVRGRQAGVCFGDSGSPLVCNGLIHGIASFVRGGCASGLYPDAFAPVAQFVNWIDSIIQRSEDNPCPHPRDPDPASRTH

Row | half-life [1] [h] | k on [2] [M⁻¹ s⁻¹] | SMILES
1 | 104 | – | CO[C@H]1C(=O)N2C(C(=O)C(C)(C)C)=C(C)CS(=O)(=O)[C@H]12
2 | 26 | – | CO[C@H]1C(=O)N2C(C(=O)c3ccccc3)=C(C)CS(=O)(=O)[C@H]12
3 | 71 | 2000 | CO[C@H]1C(=O)N2c3c(coc3-c3ccccc3)CS(=O)(=O)[C@H]12
4 | 140 | 1000 | CO[C@H]1C(=O)N2c3c(coc3C(C)(C)C)[C@@H](C)S(=O)(=O)[C@H]12
5 | 180 | 500 | CO[C@H]1C(=O)N2c3c(coc3C(C)(C)C)CS(=O)(=O)[C@H]12
6 | – | 1100 | CO[C@H]1C(=O)N2c3c(coc3C(C)(C)C)[C@@H](CC(=O)OC(C)(C)C)S(=O)(=O)[C@H]12
7 | 520 | 8800 | CO[C@H]1C(=O)N2c3c(coc3C(C)(C)C)[C@]3(CC3(c3ccccc3)c3ccccc3)S(=O)(=O)[C@H]12
